Values joined by “and” are separate entries in the source; they are usually repeats but may differ in a detail not shown here. Identical values can stand only once. Like-named read-outs stand apart in the source and are kept apart here.
Test: Plasma AT2220 (1-deoxynojirimycin hydrochloride) pharmacokinetics by LC-MS/MS in Pompe patients
Type: in vivo, human
Details: for Tmax / half-life / AUC(0-t) / AUC(0-inf) / Cmax: human, plasma
Description: Blood samples for pharmacokinetic analysis will be collected before dosing 1-deoxynojirimycin hydrochloride and at 1 hour after administration of 1-deoxynojirimycin hydrochloride (i.e., immediately before initiation of the alglucosidase alfa infusion) and over the 24-hour period after initiation of the alglucosidase alfa infusion. Plasma and WBC GAA enzyme activity, plasma 1-deoxynojirimycin hydrochloride concentrations and plasma anti-rhGAA antibody titer will be determined from the collected blood samples at the times summarized in Table 2. A 12-lead ECG will be performed at the end of the alglucosidase alfa infusion, immediately after collection of the post-infusion blood sample.
Concentrations of 1-deoxynojirimycin hydrochloride in blood samples will be measured in plasma using a validated LC-MS/MS assay. GAA activity in plasma will be determined by a validated assay measuring enzyme activity using 4-MUG, with and without Con A. GAA protein levels will be measured by Western blotting using anti-human GAA antibody.
Non-compartmental pharmacokinetic parameters of AUC0-t, AUCinfinity, Cmax, tmax, kel and half-life will be calculated from plasma 1-deoxynojirimycin hydrochloride concentrations and plasma rhGAA enzyme levels. Pharmacokinetic parameters will be summarized by treatment using descriptive statistics. The AUC0-t, AUCinfinity ratios for GAA enzyme activity alone or after administration with 1-deoxynojirimycin hydrochloride will be calculated. Pharmacokinetic and pharmacodynamic data for those subjects receiving Myozyme® and Lumizyme® will be analyzed separately.

[1] = Cohort 3, 250 mg AT2220, Max, N=6
[2] = Cohort 3, 250 mg AT2220, Min, N=6
[3] = Cohort 3, 250 mg AT2220, individual subjects

OC[C@H]1NC[C@H](O)[C@@H](O)[C@@H]1O [AT2220, (2R,3R,4R,5S)-2-hydroxymethyl-piperidine-3,4,5-triol]
linearity of plasma pharmacokinetics (50 mg and 100 mg doses): approximately linear
linearity of plasma pharmacokinetics (50 mg and 100 mg doses, listed as 1-DNJ-HCl): approximately linear PK
increase in Cmax and AUC with dose (50 mg to 100 mg): ~2 fold
Plasma AT2220 AUC0-∞ Ratio (100 mg AT2220 (N = 6) relative to 50 mg): 1.9
AUC0-∞ Ratio, plasma AT2220 (100 mg vs 50 mg dose): 1.9
Plasma AT2220 AUC0-∞ Ratio (250 mg AT2220 (N = 6) relative to 50 mg): 3.2
Plasma AT2220 AUC0-T [1]: 29670 ng·h/mL
Plasma AT2220 AUC0-∞ [1]: 29916 ng·h/mL
Plasma AT2220 Cmax [1]: 4750 ng/mL
Plasma AT2220 T½ [1]: 4.6 h
Plasma AT2220 AUC0-T [2]: 18321 ng·h/mL
Plasma AT2220 AUC0-∞ [2]: 18711 ng·h/mL
Plasma AT2220 Cmax [2]: 2090 ng/mL
Plasma AT2220 Tmax [2]: 2.0 h
Plasma AT2220 T½ [2]: 3.0 h
Plasma AT2220 AUC0-T [3]: 19344 ng·h/mL and 29670 ng·h/mL and 22230 ng·h/mL and 18321 ng·h/mL and 24278 ng·h/mL
Plasma AT2220 AUC0-∞ [3]: 19534 ng·h/mL and 29916 ng·h/mL and 22345 ng·h/mL and 18711 ng·h/mL and 24558 ng·h/mL
Plasma AT2220 Cmax [3]: 2090 ng/mL and 2740 ng/mL and 4750 ng/mL and 3620 ng/mL and 2350 ng/mL and 4220 ng/mL
Plasma AT2220 Tmax [3]: 2.0 h
Tmax (both sexes, oral, 50 mg and 100 mg doses, read-out: rate of absorption (Tmax)): 2 to 3 h
increase in mean AUC, plasma AT2220 (from 50 mg to 100 mg): 1.9 fold
increase in mean Cmax, plasma AT2220 (from 50 mg to 100 mg): 1.8 fold
half-life (oral, 50 mg, 50 mg AT2220 (N = 4), Cohort 1, Arithmetic mean (SD), read-out: Plasma AT2220 t½ (converted)): 3.1 h
AUC(0-t) (oral, 50 mg, 50 mg AT2220 (N = 4), Cohort 1, Geometric mean (CV %), read-out: Plasma AT2220 AUC0-T): 6970 ng·h/mL
AUC(0-inf) (oral, 50 mg, 50 mg AT2220 (N = 4), Cohort 1, Geometric mean (CV %), read-out: Plasma AT2220 AUC0-∞): 7010 ng·h/mL
Cmax (oral, 50 mg, 50 mg AT2220 (N = 4), Cohort 1, Geometric mean (CV %), read-out: Plasma AT2220 Cmax): 1040 ng/mL
Tmax (oral, 50 mg, 50 mg AT2220 (N = 4), Cohort 1, Median (range), read-out: Plasma AT2220 Tmax): 2 h
half-life (oral, 100 mg, 100 mg AT2220 (N = 6), Cohort 2, Arithmetic mean (SD), read-out: Plasma AT2220 t½ (converted)): 3.4 h
AUC(0-t) (oral, 100 mg, 100 mg AT2220 (N = 6), Cohort 2, Geometric mean (CV %), read-out: Plasma AT2220 AUC0-T): 13000 ng·h/mL
AUC(0-inf) (oral, 100 mg, 100 mg AT2220 (N = 6), Cohort 2, Geometric mean (CV %), read-out: Plasma AT2220 AUC0-∞): 13100 ng·h/mL
Cmax (oral, 100 mg, 100 mg AT2220 (N = 6), Cohort 2, Geometric mean (CV %), read-out: Plasma AT2220 Cmax): 1860 ng/mL
Tmax (oral, 100 mg, 100 mg AT2220 (N = 6), Cohort 2, Median (range), read-out: Plasma AT2220 Tmax): 3 h
half-life (oral, 250 mg, 250 mg AT2220 (N = 6), Cohort 3, Arithmetic mean (SD), read-out: Plasma AT2220 t½ (converted)): 3.7 h
AUC(0-t) (oral, 250 mg, 250 mg AT2220 (N = 6), Cohort 3, Geometric mean (CV %), read-out: Plasma AT2220 AUC0-T): 21800 ng·h/mL
AUC(0-inf) (oral, 250 mg, 250 mg AT2220 (N = 6), Cohort 3, Geometric mean (CV %), read-out: Plasma AT2220 AUC0-∞): 22100 ng·h/mL
Cmax (oral, 250 mg, 250 mg AT2220 (N = 6), Cohort 3, Geometric mean (CV %), read-out: Plasma AT2220 Cmax): 3150 ng/mL
Tmax (oral, 250 mg, 250 mg AT2220 (N = 6), Cohort 3, Median (range), read-out: Plasma AT2220 Tmax): 2 h
AUC(0-t) (oral, 250 mg, Cohort 3, 250 mg AT2220, Geometric Mean, N=6, read-out: Plasma AT2220 AUC0-T): 21800 ng·h/mL
AUC(0-inf) (oral, 250 mg, Cohort 3, 250 mg AT2220, Geometric Mean, N=6, read-out: Plasma AT2220 AUC0-∞): 22100 ng·h/mL
Cmax (oral, 250 mg, Cohort 3, 250 mg AT2220, Geometric Mean, N=6, read-out: Plasma AT2220 Cmax): 3150 ng/mL
Tmax (oral, 250 mg, Cohort 3, 250 mg AT2220, Geometric Mean, N=6, read-out: Plasma AT2220 Tmax): 2.3 h
half-life (oral, 250 mg, Cohort 3, 250 mg AT2220, Geometric Mean, N=6, read-out: Plasma AT2220 T½ (converted)): 3.7 h
AUC(0-t) (oral, 250 mg, Cohort 3, 250 mg AT2220, Mean, N=6, read-out: Plasma AT2220 AUC0-T): 22100 ng·h/mL
AUC(0-inf) (oral, 250 mg, Cohort 3, 250 mg AT2220, Mean, N=6, read-out: Plasma AT2220 AUC0-∞): 22400 ng·h/mL
Cmax (oral, 250 mg, Cohort 3, 250 mg AT2220, Mean, N=6, read-out: Plasma AT2220 Cmax): 3300 ng/mL
Tmax (oral, 250 mg, Cohort 3, 250 mg AT2220, Mean, N=6, read-out: Plasma AT2220 Tmax): 2.3 h
half-life (oral, 250 mg, Cohort 3, 250 mg AT2220, Mean, N=6, read-out: Plasma AT2220 T½ (converted)): 3.7 h
AUC(0-t) (oral, 250 mg, Cohort 3, 250 mg AT2220, Median, N=6, read-out: Plasma AT2220 AUC0-T): 20800 ng·h/mL
AUC(0-inf) (oral, 250 mg, Cohort 3, 250 mg AT2220, Median, N=6, read-out: Plasma AT2220 AUC0-∞): 20900 ng·h/mL
Cmax (oral, 250 mg, Cohort 3, 250 mg AT2220, Median, N=6, read-out: Plasma AT2220 Cmax): 3180 ng/mL
Tmax (oral, 250 mg, Cohort 3, 250 mg AT2220, Median, N=6, read-out: Plasma AT2220 Tmax): 2 h
half-life (oral, 250 mg, Cohort 3, 250 mg AT2220, Median, N=6, read-out: Plasma AT2220 T½ (converted)): 3.6 h
AUC(0-t) (oral, 250 mg, Cohort 3, 250 mg AT2220, individual subjects, read-out: Plasma AT2220 AUC0-T): 18700 ng·h/mL
AUC(0-inf) (oral, 250 mg, Cohort 3, 250 mg AT2220, individual subjects, read-out: Plasma AT2220 AUC0-∞): 19300 ng·h/mL
Tmax (oral, 250 mg, Cohort 3, 250 mg AT2220, individual subjects, read-out: Plasma AT2220 Tmax): 3 h
half-life (oral, 250 mg, Cohort 3, 250 mg AT2220, individual subjects, read-out: Plasma AT2220 T½ (converted)): 4.6 h
half-life (po, 50 mg, 50 mg single oral dose (N=4), arithmetic mean (SD), read-out: t½, plasma AT2220 (converted)): 3.1 h
AUC(0-t) (po, 50 mg, 50 mg single oral dose (N=4), geometric mean (CV %), read-out: AUC0-T, plasma AT2220): 6970 ng·h/mL
AUC(0-inf) (po, 50 mg, 50 mg single oral dose (N=4), geometric mean (CV %), read-out: AUC0-∞, plasma AT2220): 7010 ng·h/mL
Tmax (po, 50 mg, 50 mg single oral dose (N=4), median (range), read-out: Tmax, plasma AT2220): 2 h
Cmax (po, 50 mg, 50 mg single oral dose (N=4, Cohort 1), geometric mean (CV %), read-out: Cmax, plasma AT2220): 1040 ng/mL
half-life (po, 100 mg, 100 mg single oral dose (N=6), arithmetic mean (SD), read-out: t½, plasma AT2220 (converted)): 3.4 h
AUC(0-t) (po, 100 mg, 100 mg single oral dose (N=6), geometric mean (CV %), read-out: AUC0-T, plasma AT2220): 13000 ng·h/mL
AUC(0-inf) (po, 100 mg, 100 mg single oral dose (N=6), geometric mean (CV %), read-out: AUC0-∞, plasma AT2220): 13100 ng·h/mL
Tmax (po, 100 mg, 100 mg single oral dose (N=6), median (range), read-out: Tmax, plasma AT2220): 3 h
Cmax (po, 100 mg, 100 mg single oral dose (N=6, Cohort 2), geometric mean (CV %), read-out: Cmax, plasma AT2220): 1860 ng/mL
increase in mean AUC, plasma AT2220 (to 250 mg): 3.2 fold
increase in mean Cmax, plasma AT2220 (to 250 mg): 3.0 fold

— patent US20150086530A1, “DOSING REGIMENS FOR THE TREATMENT OF POMPE DISEASE” (Amicus Therapeutics, Inc., priority 2012, published 2015)
